Data as given in US20030194434A1, “Bubbling tablet, bubbling bath additive tablet, bubbling washing detergent tablet, bubbling tablet for oral administration, and process for producing these” (priority 2000, published 2003).

experiment: Kinetic viscosity of saccharide solution, Ubbelohde viscosimeter, Japanese Pharmacopoeia 13th edition; type: physicochemical; conditions: 0.5 g of component dissolved in 50 ml of water (25° C.)
Procedure: The value shown after each component in parenthesis is the kinetic viscosity of the solution in which 0.5 g of each component is dissolved in 50 ml of water (25° C.).

Row | SMILES | kinetic viscosity
1 | OC[C@@H](O)[C@@H](O)[C@H](O)[C@@H](O)CO [sorbitol] | 0.897 cSt
2 | OC[C@@H](O)[C@@H](O)[C@H](O)[C@H](O)CO [mannitol] | 0.896 cSt
3 | OC[C@@H](O)[C@@H](O[C@H]1O[C@H](CO)[C@@H](O)[C@H](O)[C@H]1O)[C@H](O)[C@@H](O)CO [maltitol] | 0.904 cSt

Next, values leading:

Row | kinetic viscosity | SMILES
4 | 0.891 cSt | OC[C@H]1O[C@H](O[C@H]2O[C@H](CO)[C@@H](O)[C@H](O)[C@H]2O)[C@H](O)[C@@H](O)[C@@H]1O [trehalose]
5 | 0.904 cSt | OC[C@@H](O)[C@H](O)[C@@H](O)CO [xylitol]
6 | 0.912 cSt | OC[C@H]1O[C@@](CO)(O[C@H]2O[C@H](CO)[C@@H](O)[C@H](O)[C@H]2O)[C@@H](O)[C@@H]1O [sucrose]
